Tested on: IL17A
Test: skin Resident Immune Cell Assay (sRICA), Th17 model, IL17A protein in media
Type: cell-based
Conditions: 100 uM solution in 1% DMSO/OD applied topically to human skin; media collected 24 hours after Th17 activation
Description: A skin Resident Immune Cell Assay (sRICA) was used to test compounds for reduction of IL-17A protein upregulation in the Th17 sRICA model. In this model, human surgical skin waste was cultured in a transwell system, with the dermis in contact with cell culture media and the stratum corneum exposed to air. To perform the assay, each human skin sample was defatted and dermatomed to 750μm. Next, 8 mm punch biopsies were obtained and placed in a membrane transwell. The transwells were inserted into culture wells with complete media, and a cocktail of cytokines and antibodies were added to promote skin resident immune cell polarization.
RORγt inhibitors were prepared as a 100 uM solution in 1% DMSO/OD. […] of the prepared topical solution was applied to sRICA wells prepared for topical drug evaluation. Drugs were allowed to penetrate the skin overnight, for up to 24 hours prior to Th17 activation. Media was collected 24 hours after Th17 activation for IL17A protein assessment. IL17A protein was evaluated using the Quanterix IL17A detection kit on the SiMoA platform (via CRO Translational Biosciences). There was significant upregulation of IL17A with Th17 activation. Each study was normalized to the % max of IL17A production (i.e. the average IL17A concentration of Th17 activated skin alone) was set to 100%, all other values (untreated no activation and treated samples) were obtained as a percentage of this. […]

| SMILES | inhibition at 100 µM |
| --- | --- |
| CC(C)n1c(=O)n(CC2CC2)c(=O)c2cc(NC(=O)N3CCC[C@@H](NC(=O)c4ccccc4)C3)ccc21 [(3R)-3-(benzoylamino)-N-(3-(cyclopropylmethyl)-1-isopropyl-2,4-dioxo-1,2,3,4-tetrahydroquinazolin-6-yl)piperidine-1-carboxamide] | 53.2% |
| CC(C)n1c(=O)n(CC2CC(F)(F)C2)c(=O)c2cc(NC(=O)N3CCC[C@@H](N4Cc5ccccc5C4=O)C3)c(F)cc21 [(3R)-N-(3-((3,3-difluorocyclobutyl)-methyl)-7-fluoro-1-isopropyl-2,4-dioxo-1,2,3,4-tetrahydro-quinazolin-6-yl)-3-(1-oxo-1,3-dihydro-2H-isoindol-2-yl)-piperidine-1-carboxamide] | 73.1% |
| CC(C)n1c(=O)n(CC2CC2)c(=O)c2cc(NC(=O)N3CCC[C@@H](NC(=O)c4cc(F)ccc4F)C3)c(F)cc21 [(3R)-N-(3-(cyclopropylmethyl)-7-fluoro-1-isopropyl-2,4-dioxo-1,2,3,4-tetrahydroquinazolin-6-yl)-3-((2,5-difluorobenzoyl)amino)-piperidine-1-carboxamide] | 44.2% |
| COCc1ccc([C@@H](NC(=O)[C@H]2CNC(=O)C2)C(=O)Nc2cc(F)c(C(C)(C)C)c(F)c2)cc1 [(3R)-N-((1R)-2-((4-tert-butyl-3,5-difluorophenyl)amino)-1-(4-(methoxymethyl)phenyl)-2-oxoethyl)-5-oxopyrrolidine-3-carboxamide] | 63.1% |
| COCc1ccc([C@@H](NC(=O)[C@H]2CNC(=O)C2)C(=O)Nc2ccc(C(C)(C)C)c(F)c2)cc1 [(3R)-N-((1R)-2-((4-tert-butyl-3-fluorophenyl)amino)-1-(4-(methoxymethyl)phenyl)-2-oxoethyl)-5-oxopyrrolidine-3-carboxamide] | 74.1% |
| CC(C)(C)c1ccc(NC(=O)[C@H](NC(=O)[C@@H]2CNC(=O)C2)c2ccc3c(c2)CCO3)cc1F [(3S)-N-(2-((4-tert-butyl-3-fluorophenyl)amino)-1-(2,3-dihydro-1-benzofuran-5-yl)-2-oxoethyl)-5-oxopyrrolidine-3-carboxamide] | 48.7% |
| COCc1ccc([C@@H](NC(=O)[C@@H]2CNC(=O)C2)C(=O)Nc2ccc(CC(C)(C)C)c(F)c2)cc1 [(3S)-N-((1R)-2-((4-(2,2-dimethylpropyl)-3-fluorophenyl)amino)-1-(4-(methoxymethyl)phenyl)-2-oxoethyl)-5-oxopyrrolidine-3-carboxamide] | 52.9% |
| COCc1ccc([C@@H](NC(=O)[C@@H]2CNC(=O)C2)C(=O)Nc2ccc(C(C)(C)C)c(F)c2)cc1 [(3S)-N-((1R)-2-((4-tert-butyl-3-fluorophenyl)amino)-1-(4-(methoxymethyl)phenyl)-2-oxoethyl)-5-oxopyrrolidine-3-carboxamide] | 38.7% |
| COc1ccc2c(n1)CCN(C(=O)Cc1cc(O)no1)[C@H]2C(=O)Nc1ccc(C(C)(C)C)c(F)c1 [(5R)-N-(4-tert-butyl-3-fluorophenyl)-6-((3-hydroxy-1,2-oxazol-5-yl)acetyl)-2-methoxy-5,6,7,8-tetrahydro-1,6-naphthyridine-5-carboxamide] | 69.5% |
| COc1ccc2c(n1)CCN(C(=O)Cc1cc(O)no1)[C@H]2C(=O)Nc1cc(F)c2c(c1)CCC2(C)C [(5R)-N-(7-fluoro-1,1-dimethyl-2,3-dihydro-1H-inden-5-yl)-6-((3-hydroxy-1,2-oxazol-5-yl)acetyl)-2-methoxy-5,6,7,8-tetrahydro-1,6-naphthyridine-5-carboxamide] | 19.2% |
| COc1ccc2c(n1)CCN(C(=O)c1cc(O)no1)[C@H]2C(=O)Nc1cc(F)c2c(c1)CCC2(C)C [(5R)-N-(7-fluoro-1,1-dimethyl-2,3-dihydro-1H-inden-5-yl)-6-((3-hydroxy-1,2-oxazol-5-yl)carbonyl)-2-methoxy-5,6,7,8-tetrahydro-1,6-naphthyridine-5-carboxamide] | 46.9% |

Same assay, conditions: Homo sapiens, 24 h, 100 uM solution in 1% DMSO/OD applied topically to human skin; media collected 24 hours after Th17 activation

| SMILES | inhibition at 100 µM |
| --- | --- |
| COCc1ccc([C@@H](NC(=O)[C@H]2CNC(=O)C2)C(=O)Nc2cc(F)c([Si](C)(C)C)c(F)c2)cc1 [(3R)-N-((1R)-2-((3,5-difluoro-4-(trimethylsilyl)phenyl)amino)-1-(4-(methoxymethyl)phenyl)-2-oxoethyl)-5-oxopyrrolidine-3-carboxamide] | 63% |
| COc1ccc([C@@H](NC(=O)[C@H]2CNC(=O)C2)C(=O)Nc2ccc([Si](C)(C)C)c(F)c2)cc1 [(3R)-N-((1R)-2-((3-fluoro-4-(trimethylsilyl)phenyl)amino)-1-(4-(methoxy)phenyl)-2-oxoethyl)-5-oxopyrrolidine-3-carboxamide] | 65.2% |
| COc1ccc([C@@H](NC(=O)N2CC[C@@H](O)C2)C(=O)Nc2ccc([Si](C)(C)C)c(F)c2)cc1 [(3R)-N-((1R)-2-((3-fluoro-4-(trimethylsilyl)phenyl)amino)-1-(4-methoxyphenyl)-2-oxoethyl)-3-hydroxypyrrolidine-1-carboxamide] | 46.9% |
| Cn1ncc2cc(C(NC(=O)[C@@H]3CNC(=O)C3)C(=O)Nc3ccc([Si](C)(C)C)c(F)c3)ccc21 (stereo partly drawn) [(3S)-N-(2-((3-fluoro-4-(trimethylsilyl)phenyl)amino)-1-(1-methyl-1H-indazol-5-yl)-2-oxoethyl)-5-oxopyrrolidine-3-carboxamide] | 58.3% |
| COCc1ccc([C@@H](NC(=O)[C@@H]2CNC(=O)C2)C(=O)Nc2cc(F)c([Si](C)(C)C)c(F)c2)cc1 [(3S)-N-((1R)-2-((3,5-difluoro-4-(trimethylsilyl)phenyl)amino)-1-(4-(methoxymethyl)phenyl)-2-oxoethyl)-5-oxopyrrolidine-3-carboxamide] | 23.6% |
| COc1ccc2c(c1)OCCN(C(=O)Cc1cc(O)no1)[C@H]2C(=O)Nc1cc(F)c([Si](C)(C)C)c(F)c1 [(5R)-N-(3,5-difluoro-4-(trimethylsilyl)phenyl)-4-((3-hydroxy-1,2-oxazol-5-yl)acetyl)-8-methoxy-2,3,4,5-tetrahydro-1,4-benzoxazepine-5-carboxamide] | 58.1% |
| COCc1ccc2c(n1)CCN(C(=O)Cc1cc(O)no1)[C@H]2C(=O)Nc1cc(F)c([Si](C)(C)C)c(F)c1 [(5R)-N-(3,5-difluoro-4-(trimethylsilyl)phenyl)-6-((3-hydroxy-1,2-oxazol-5-yl)acetyl)-2-(methoxymethyl)-5,6,7,8-tetrahydro-1,6-naphthyridine-5-carboxamide] | 60.1% |
| COc1ccc2c(n1)CCN(C(=O)Cc1cc(O)no1)[C@H]2C(=O)Nc1cc(F)c([Si](C)(C)C)c(F)c1 [(5R)-N-(3,5-difluoro-4-(trimethylsilyl)phenyl)-6-((3-hydroxy-1,2-oxazol-5-yl)acetyl)-2-methoxy-5,6,7,8-tetrahydro-1,6-naphthyridine-5-carboxamide] | 49.4% |
| COCc1ccc2c(n1)CCN(C(=O)c1cc(O)no1)[C@H]2C(=O)Nc1cc(F)c([Si](C)(C)C)c(F)c1 [(5R)-N-(3,5-difluoro-4-(trimethylsilyl)phenyl)-6-((3-hydroxy-1,2-oxazol-5-yl)carbonyl)-2-(methoxymethyl)-5,6,7,8-tetrahydro-1,6-naphthyridine-5-carboxamide] | -15.5% |
| COc1ccc2c(n1)CCN(C(=O)Cc1cc(O)no1)[C@H]2C(=O)Nc1ccc([Si](C)(C)C)c(F)c1 [(5R)-N-(3-fluoro-4-(trimethylsilyl)phenyl)-6-((3-hydroxy-1,2-oxazol-5-yl)acetyl)-2-methoxy-5,6,7,8-tetrahydro-1,6-naphthyridine-5-carboxamide] | 22.2% |
| CC[Si](C)(C)c1c(F)cc(NC(=O)[C@H]2c3ccc(COC)nc3CCN2C(=O)c2cc(O)no2)cc1F [(5R)-N-(4-(ethyl(dimethyl)silyl)-3,5-difluorophenyl)-6-((3-hydroxy-1,2-oxazol-5-yl)carbonyl)-2-(methoxymethyl)-5,6,7,8-tetrahydro-1,6-naphthyridine-5-carboxamide] | 48.5% |
| CN(C(=O)c1cc(O)no1)C(C(=O)Nc1cc(F)c([Si](C)(C)C)c(F)c1)C1CCOCC1 (centres unmarked) [N-(2-((3,5-difluoro-4-(trimethylsilyl)phenyl)amino)-2-oxo-1-(tetrahydro-2H-pyran-4-yl)ethyl)-3-hydroxy-N-methyl-1,2-oxazole-5-carboxamide] | 31.7% |
| COCc1ccc(C(NC(=O)C2CNC(=O)C2)C(=O)Nc2ccc([Si](C)(C)C)c(F)c2)cc1 (centres unmarked) [N-(2-((3-fluoro-4-(trimethylsilyl)phenyl)amino)-1-(4-(methoxymethyl)phenyl)-2-oxoethyl)-5-oxopyrrolidine-3-carboxamide] | 85.2% |
| COc1ccc(C(NC(=O)C2CNC(=O)C2)C(=O)Nc2ccc([Si](C)(C)C)c(F)c2)cc1 (centres unmarked) [N-(2-((3-fluoro-4-(trimethylsilyl)phenyl)amino)-1-(4-methoxyphenyl)-2-oxoethyl)-5-oxopyrrolidine-3-carboxamide] | 65.8% |
| CCn1c(=O)n(CCCOC)c(=O)c2cc(NC(=O)CC(C)CC(=O)Nc3ccc(C#N)c(Cl)c3)ccc21 (centres unmarked) [N-(3-chloro-4-cyanophenyl)-N′-(1-ethyl-3-(3-methoxypropyl)-2,4-dioxo-1,2,3,4-tetrahydroquinazolin-6-yl)-3-methylpentanediamide] | 60.8% |

— patent publication US20220409643A1, “ROR Gamma T Inhibitors and Topical Uses Thereof” (Dermira, inc., priority 2019, published 2022)
